Laboratory results as given in ChEMBL document CHEMBL1201862, “PubChem BioAssay data set” (2004).
Active and inactive are the calls of the source.

How the values were obtained:
[1] = biological target: G2/mitotic-specific cyclin-B1 (Homo sapiens, UniProt P14635); experiment: Counterscreen assay for inhibitors of Wee1 degradation: dose response cell-based assay to identify inhibitors of cyclin B degradation. [Related pubchem assays: 1410, 1321 ]; type: functional
Wee1-like protein kinase = Wee1-like protein kinase (Homo sapiens, UniProt P30291); experiment: Dose Response Cell-based Assay for Inhibitors of Wee1 Degradation. [Related pubchem assays: 1410, 1321 ]; type: functional
[2] = Luminescence-based dose response cell-based high throughput screening assay for cytotoxic compounds using the IEC-6 intestinal epithelial cell line. [Related pubchem assays: 1858 (Summary AID.), 1825 (Counterscreen.), 1907 (Confirmation screen.)]; type: functional
[3] = HeLa cell cytotoxicity, dose response, cytotoxicity control for MgcRacGAP inhibitor project (AID 624300); type: functional
Beta Lactamase = Beta Lactamase (Pseudomonas aeruginosa, UniProt Q932Y6); experiment: beta-lactamase reporter inhibitor potency, dose response, artefact control for TLR9-MyD88 binding inhibitor project, BLA reporter cells, FRET fluorescence (AID 588341); type: cell-based;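 note: cell based assay in CHO-K1 cells stably expressing beta-lactamase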
Beta-galactosidase = Beta-galactosidase (Escherichia coli, UniProt Q8VNN2); type: functional
[4] = inhibitors of SNCA 5'UTR-driven reporter translation, confirmation, H4 neuroglioma cells, luminescence (AID 1988); type: functional, cell-based
[5] = Shn3 3'UTR reporter inhibitors, dose response, cell-based, Clone20 osteoblasts, firefly luciferase, cherry-picked (AID 624132); type: functional;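 note: firefly luciferase luminescence from reporter carrying the Shn3 3'UTR in osteoblasts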
[6] = biological target: T1, Histone-lysine N-methyltransferase NSD2 (Homo sapiens, UniProt O96028); type: biochemical
T1 sequence (O96028 whole entry): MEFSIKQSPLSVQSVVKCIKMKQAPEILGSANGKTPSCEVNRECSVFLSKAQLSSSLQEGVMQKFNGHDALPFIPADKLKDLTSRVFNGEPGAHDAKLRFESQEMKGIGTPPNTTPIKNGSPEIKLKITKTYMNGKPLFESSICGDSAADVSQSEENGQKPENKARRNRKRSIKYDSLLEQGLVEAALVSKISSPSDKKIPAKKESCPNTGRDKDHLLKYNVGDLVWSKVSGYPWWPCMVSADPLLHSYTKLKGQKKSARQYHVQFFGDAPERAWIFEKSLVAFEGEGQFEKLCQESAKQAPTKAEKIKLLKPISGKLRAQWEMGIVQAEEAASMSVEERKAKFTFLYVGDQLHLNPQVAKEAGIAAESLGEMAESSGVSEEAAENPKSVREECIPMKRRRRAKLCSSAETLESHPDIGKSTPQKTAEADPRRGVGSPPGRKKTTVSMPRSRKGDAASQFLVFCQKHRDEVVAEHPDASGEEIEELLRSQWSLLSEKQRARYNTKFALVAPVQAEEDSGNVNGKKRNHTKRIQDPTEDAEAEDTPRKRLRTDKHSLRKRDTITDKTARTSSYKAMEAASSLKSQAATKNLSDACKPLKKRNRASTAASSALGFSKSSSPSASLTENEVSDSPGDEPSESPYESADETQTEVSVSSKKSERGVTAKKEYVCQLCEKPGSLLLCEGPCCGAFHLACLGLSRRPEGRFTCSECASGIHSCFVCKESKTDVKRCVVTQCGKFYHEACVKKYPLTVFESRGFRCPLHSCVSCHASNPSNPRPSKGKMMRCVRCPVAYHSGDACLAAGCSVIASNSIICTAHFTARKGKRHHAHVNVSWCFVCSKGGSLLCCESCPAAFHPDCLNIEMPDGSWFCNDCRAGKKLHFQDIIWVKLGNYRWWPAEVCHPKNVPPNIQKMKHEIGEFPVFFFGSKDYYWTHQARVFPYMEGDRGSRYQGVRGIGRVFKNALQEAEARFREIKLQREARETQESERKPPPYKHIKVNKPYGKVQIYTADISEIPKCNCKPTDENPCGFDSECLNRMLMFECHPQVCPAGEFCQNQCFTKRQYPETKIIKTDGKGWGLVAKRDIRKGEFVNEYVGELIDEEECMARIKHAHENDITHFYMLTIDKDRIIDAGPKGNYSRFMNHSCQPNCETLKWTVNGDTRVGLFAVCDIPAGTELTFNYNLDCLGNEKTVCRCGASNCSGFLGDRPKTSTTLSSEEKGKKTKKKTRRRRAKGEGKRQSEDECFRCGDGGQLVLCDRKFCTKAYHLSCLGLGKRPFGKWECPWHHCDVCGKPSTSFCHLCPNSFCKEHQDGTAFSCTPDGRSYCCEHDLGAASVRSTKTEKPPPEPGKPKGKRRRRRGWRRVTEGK

Hexokinase HKDC1 = Hexokinase HKDC1 (Homo sapiens, UniProt Q2TB90); experiment: HKDC1 hexokinase inhibitors, dose response, biochemical, W721R variant (AID 504729); type: functional
[7] = biological target: Heat shock protein HSP 90-alpha (Homo sapiens, UniProt P07900); experiment: Luminescence-based dose response biochemical high throughput screening assay for inhibitors of the Heat Shock Protein 90 (HSP90). [Related pubchem assays: 1831 (Summary AID.), 1846 (Confirmation screen.), 1789 (Primary screen.)]
[8] = biological target: T2, Zinc finger protein mex-5 (Caenorhabditis elegans, UniProt Q9XUB2); experiment: MEX-5/TCR-2 RNA interaction inhibitors, dose response, biochemical, C. elegans, fluorescence polarization (AID 1960)
T2 sequence (Q9XUB2 whole entry): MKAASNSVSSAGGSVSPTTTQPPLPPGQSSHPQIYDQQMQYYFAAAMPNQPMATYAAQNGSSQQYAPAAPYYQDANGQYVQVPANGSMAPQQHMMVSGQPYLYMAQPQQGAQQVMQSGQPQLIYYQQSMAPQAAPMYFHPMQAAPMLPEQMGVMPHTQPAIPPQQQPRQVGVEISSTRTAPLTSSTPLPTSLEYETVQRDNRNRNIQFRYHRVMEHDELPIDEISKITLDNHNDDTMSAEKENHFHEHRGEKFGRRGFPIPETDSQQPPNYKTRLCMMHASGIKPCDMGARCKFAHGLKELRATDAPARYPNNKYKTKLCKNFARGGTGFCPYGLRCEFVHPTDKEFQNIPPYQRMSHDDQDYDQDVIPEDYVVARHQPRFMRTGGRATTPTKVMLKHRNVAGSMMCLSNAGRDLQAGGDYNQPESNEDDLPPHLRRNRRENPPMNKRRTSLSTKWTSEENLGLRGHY

[9] = biological target: T3, RNA-binding protein pos-1 (Caenorhabditis elegans, UniProt G5EF15); experiment: inhibitors of POS-1/mex-3 RNA binding, dose response, biochemical, fluorescence polarization (AID 1964);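 note: purified POS-1 fused to maltose binding protein made in E. coli; potency of compounds blocking POS-1 binding to fluorescent RNA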
T3 sequence (G5EF15 whole entry): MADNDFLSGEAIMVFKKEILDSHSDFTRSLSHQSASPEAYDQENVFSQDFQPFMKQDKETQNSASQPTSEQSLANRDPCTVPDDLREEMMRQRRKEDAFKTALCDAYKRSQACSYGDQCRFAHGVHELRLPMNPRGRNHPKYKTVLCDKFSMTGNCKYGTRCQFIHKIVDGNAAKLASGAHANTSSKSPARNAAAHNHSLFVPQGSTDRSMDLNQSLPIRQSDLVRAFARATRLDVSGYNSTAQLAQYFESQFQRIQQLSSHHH

Chain of G2/mitotic-specific cyclin-B1 (P14635 whole entry): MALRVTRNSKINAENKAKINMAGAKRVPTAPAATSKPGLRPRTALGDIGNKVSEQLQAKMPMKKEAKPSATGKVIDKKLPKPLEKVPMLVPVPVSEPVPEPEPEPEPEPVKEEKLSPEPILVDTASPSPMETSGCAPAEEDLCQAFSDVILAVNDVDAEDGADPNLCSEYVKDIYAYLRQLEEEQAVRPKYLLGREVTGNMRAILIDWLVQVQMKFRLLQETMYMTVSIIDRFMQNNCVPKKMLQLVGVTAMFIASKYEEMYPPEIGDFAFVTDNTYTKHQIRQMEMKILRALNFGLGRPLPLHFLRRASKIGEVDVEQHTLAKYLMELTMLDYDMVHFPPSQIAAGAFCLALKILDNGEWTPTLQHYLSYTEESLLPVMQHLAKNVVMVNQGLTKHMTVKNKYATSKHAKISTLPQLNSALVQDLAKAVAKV
Chain of Hexokinase HKDC1 (Q2TB90 whole entry): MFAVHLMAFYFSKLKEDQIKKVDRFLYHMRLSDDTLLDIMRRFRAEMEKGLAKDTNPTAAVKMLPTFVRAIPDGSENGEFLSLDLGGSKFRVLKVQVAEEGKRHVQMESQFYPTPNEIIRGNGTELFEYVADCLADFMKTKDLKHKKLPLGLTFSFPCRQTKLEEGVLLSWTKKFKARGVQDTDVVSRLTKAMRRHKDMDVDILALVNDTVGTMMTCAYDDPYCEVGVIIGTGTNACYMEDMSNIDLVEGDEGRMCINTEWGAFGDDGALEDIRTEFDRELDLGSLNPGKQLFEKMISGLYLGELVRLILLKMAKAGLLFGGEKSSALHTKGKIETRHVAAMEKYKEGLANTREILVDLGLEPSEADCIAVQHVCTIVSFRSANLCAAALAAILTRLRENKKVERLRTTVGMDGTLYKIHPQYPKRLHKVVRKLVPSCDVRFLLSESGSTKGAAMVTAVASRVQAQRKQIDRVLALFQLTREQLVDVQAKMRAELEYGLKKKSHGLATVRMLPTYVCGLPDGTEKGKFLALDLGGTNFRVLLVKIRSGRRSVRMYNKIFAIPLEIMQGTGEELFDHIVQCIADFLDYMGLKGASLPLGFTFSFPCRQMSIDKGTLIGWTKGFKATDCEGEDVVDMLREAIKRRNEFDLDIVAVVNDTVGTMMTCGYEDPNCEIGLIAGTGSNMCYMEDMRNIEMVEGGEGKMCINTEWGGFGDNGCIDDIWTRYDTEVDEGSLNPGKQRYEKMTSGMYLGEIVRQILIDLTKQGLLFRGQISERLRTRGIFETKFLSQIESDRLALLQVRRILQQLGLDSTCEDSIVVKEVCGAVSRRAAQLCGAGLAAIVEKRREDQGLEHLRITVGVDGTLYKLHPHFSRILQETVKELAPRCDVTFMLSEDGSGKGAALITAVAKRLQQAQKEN
Chain of Wee1-like protein kinase (P30291 whole entry): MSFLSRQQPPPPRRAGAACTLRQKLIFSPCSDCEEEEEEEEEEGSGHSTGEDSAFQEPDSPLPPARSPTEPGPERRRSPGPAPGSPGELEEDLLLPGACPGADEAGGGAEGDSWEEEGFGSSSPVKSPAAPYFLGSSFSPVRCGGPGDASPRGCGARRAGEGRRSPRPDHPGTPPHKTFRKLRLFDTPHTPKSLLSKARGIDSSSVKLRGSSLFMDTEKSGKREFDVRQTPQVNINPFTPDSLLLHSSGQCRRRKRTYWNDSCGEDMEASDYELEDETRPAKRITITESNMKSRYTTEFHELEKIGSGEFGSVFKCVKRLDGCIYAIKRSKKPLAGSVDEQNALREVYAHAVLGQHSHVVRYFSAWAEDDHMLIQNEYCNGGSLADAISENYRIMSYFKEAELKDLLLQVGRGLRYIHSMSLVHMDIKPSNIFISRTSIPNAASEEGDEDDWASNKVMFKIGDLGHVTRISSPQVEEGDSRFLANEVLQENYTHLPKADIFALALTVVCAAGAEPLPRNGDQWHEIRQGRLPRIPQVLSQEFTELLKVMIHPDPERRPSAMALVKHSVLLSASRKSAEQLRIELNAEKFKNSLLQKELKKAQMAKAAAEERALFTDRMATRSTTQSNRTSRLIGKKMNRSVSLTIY
Chain of Beta-galactosidase (Q8VNN2 whole entry): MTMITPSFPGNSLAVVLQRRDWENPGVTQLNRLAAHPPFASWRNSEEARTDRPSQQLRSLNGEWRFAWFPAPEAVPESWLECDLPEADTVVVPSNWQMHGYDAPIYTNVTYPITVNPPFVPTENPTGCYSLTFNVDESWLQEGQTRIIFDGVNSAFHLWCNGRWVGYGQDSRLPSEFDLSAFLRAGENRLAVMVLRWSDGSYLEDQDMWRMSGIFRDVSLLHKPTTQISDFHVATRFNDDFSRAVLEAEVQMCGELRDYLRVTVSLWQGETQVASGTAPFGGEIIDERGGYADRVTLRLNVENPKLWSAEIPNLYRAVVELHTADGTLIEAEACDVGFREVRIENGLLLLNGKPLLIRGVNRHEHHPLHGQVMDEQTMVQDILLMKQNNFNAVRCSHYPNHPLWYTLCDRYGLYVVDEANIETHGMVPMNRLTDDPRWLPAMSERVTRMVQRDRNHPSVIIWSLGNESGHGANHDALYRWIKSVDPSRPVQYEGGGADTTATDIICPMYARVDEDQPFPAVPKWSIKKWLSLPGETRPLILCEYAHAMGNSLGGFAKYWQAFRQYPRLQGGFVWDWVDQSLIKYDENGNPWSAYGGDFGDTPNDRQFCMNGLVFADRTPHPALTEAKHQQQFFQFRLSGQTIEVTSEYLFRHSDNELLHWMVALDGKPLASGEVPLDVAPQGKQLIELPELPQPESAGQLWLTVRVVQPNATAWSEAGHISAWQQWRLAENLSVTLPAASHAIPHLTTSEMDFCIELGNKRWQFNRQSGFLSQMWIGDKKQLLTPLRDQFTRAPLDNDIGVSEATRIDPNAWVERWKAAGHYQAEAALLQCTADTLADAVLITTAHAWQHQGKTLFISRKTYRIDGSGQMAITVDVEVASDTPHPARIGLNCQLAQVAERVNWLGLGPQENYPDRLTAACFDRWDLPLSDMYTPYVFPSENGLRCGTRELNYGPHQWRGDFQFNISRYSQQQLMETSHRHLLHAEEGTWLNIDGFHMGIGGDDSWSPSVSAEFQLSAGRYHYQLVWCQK
Chain of Beta Lactamase (Q932Y6 whole entry): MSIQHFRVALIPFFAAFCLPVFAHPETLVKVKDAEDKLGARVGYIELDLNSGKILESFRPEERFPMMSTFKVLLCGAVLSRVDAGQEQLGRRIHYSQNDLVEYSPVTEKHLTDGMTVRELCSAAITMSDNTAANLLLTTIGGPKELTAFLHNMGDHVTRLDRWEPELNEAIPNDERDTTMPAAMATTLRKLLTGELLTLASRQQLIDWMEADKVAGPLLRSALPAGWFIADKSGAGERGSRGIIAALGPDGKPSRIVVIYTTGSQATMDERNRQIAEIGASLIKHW

In the case of `COc1ccc(NC(=O)/C(Cl)=C(/Cl)[S+]([O-])Cc2ccccc2)cn1` (stereo not drawn), the EC50 [1] is reported as > 1.84 µM (active), the EC50 (Wee1-like protein kinase) is reported as > 49.7 µM (not active) and the IC50 [2] is reported as 1.27 µM (active). The CC50 [3] was 24.1 µM (active), the IC50 (Beta Lactamase) was 16 µM (inactive) and the EC50 (Beta-galactosidase) was > 31.5 µM (inactive). For the same compound, the EC50 [4] was 4.57 µM (active) and the AC50 [5] was < 0.26 µM (active).
For `Cc1ccc(S(=O)(=O)/N=C2\C=C(Nc3cccc(C(=O)O)c3)C(=O)c3ccccc32)c(C)c1`, the AC50 [6] was 0.255 µM (active), the IC50 (Hexokinase HKDC1) was 8.6 µM (active) and the IC50 [7] was 0.919 µM (active). The EC50 [8] was 31.7 µM (active) and the EC50 [9] was 68.6 µM (active).
